The values below come from ChEMBL document CHEMBL1201862, “PubChem BioAssay data set” (2004).

Molecules are shown by their SMILES.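 Dose response: 5 concentrations. Exposure: 48 h. Format: 96-well plates. Endpoint: linear interpolation; highest concentration if not reached. GI50: concentration for 50% inhibition of growth.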 Calls of active or inactive are those of the source. Cut-off read from the data, not from the text of the source: active = GI50 up to about 1.1 µM and inactive = higher.

What all share (assay): inhibition of tumour cell growth, NCI panel, 48 h
The test system of experiment [1] is ACHN.
For experiment [2], the system named is UACC-257.
For experiment [3], the system named is SK-MEL-28.
The subject of experiment [4] is A498.
For experiment [5], the system named is SNB-19.
Experiment [6] relates to OVCAR-8.
Experiment [7] concerns HL-60.
In experiment [8] the test system is PC-3.
In experiment [9] the test system is HT-29.
Experiment [10] has as its system M14.
Experiment [11] relates to OVCAR-3.
The subject of experiment [12] is Hs-578T.
For experiment [13], the system named is SR.
The test system of experiment [14] is K562.
Experiment [15] has as its system SF-295.
Experiment [16] relates to UO-31.
Experiment [17] relates to MCF7.
For experiment [18], the system named is OVCAR-5.
Experiment [19] relates to SF-539.

For `CO/N=C(\C)c1ccc(Nc2c3ccccc3nc3occc23)cc1`, the GI50 in [1] was 0.568 µM (active); in [2], 14.3 µM (inactive); in experiment [3] it was 1.43 µM (inactive); in [4], 0.773 µM (active); in experiment [5], 2.05 µM (inactive); in [6], 0.841 µM (active). The GI50 in experiment [7] was 0.254 µM (active); in [8], 0.527 µM (active); in experiment [9] it was 0.284 µM (active); in experiment [10], 0.397 µM (active); in experiment [11], 0.284 µM (active); in [12] it was 0.482 µM (active). Besides, the GI50 in experiment [13] is 0.0373 µM (active); in experiment [14], 0.195 µM (active); in experiment [15] it was 0.207 µM (active); in experiment [16] it was 2.42 µM (inactive); in experiment [17], 0.168 µM (active); in [18], 4.08 µM (inactive). Also, the GI50 in experiment [19] was 0.383 µM (active).

In the case of `Cc1ccc(NC(=O)c2cccc(OP(=O)(Nc3ccc(C)cc3)Nc3ccc(C)cc3)c2)cc1`, the GI50 in experiment [1] is 4 µM (inactive); in experiment [2] it was 11.9 µM (inactive); in [3] it was 29.9 µM (inactive); in experiment [4] it was 18.1 µM (inactive); in [5], 35.1 µM (inactive); in [6] it was 16 µM (inactive). The GI50 in experiment [7] was 9.95 µM (inactive); in experiment [8] it was 7.78 µM (inactive); in experiment [9], 3.5 µM (inactive); in [10], 3.21 µM (inactive); in [11], 5.83 µM (inactive); in experiment [12] it was 6.3 µM (inactive). The GI50 is 3.4 µM (inactive) in [13]; > 100 µM (inactive) in experiment [14]; 7.13 µM (inactive) in experiment [15]; 4.53 µM (inactive) in experiment [16]; 5.62 µM (inactive) in experiment [17]; 38.5 µM (inactive) in [18]. In addition, the GI50 in [19] is 23.3 µM (inactive).

Turning to `CC(C)OC(=O)C1=C2c3ncccc3C(=O)N2[C@@H](Cl)[C@@H](Cl)[C@@H]1Cl`, the GI50 in [1] is > 100 µM (inactive); in experiment [2], > 100 µM (inactive); in experiment [3], > 100 µM (inactive); in [4], > 100 µM (inactive); in experiment [5], > 100 µM (inactive); in [6], 39.8 µM (inactive). Also, the GI50 was 25.8 µM (inactive) in [7]; > 100 µM (inactive) in experiment [8]; > 100 µM (inactive) in [9]; > 100 µM (inactive) in [10]; > 100 µM (inactive) in [11]; 81.5 µM (inactive) in [12]. The GI50 was 49.5 µM (inactive) in experiment [13]; 33.4 µM (inactive) in experiment [14]; > 100 µM (inactive) in [15]; > 100 µM (inactive) in [16]; 84.3 µM (inactive) in experiment [17]; > 100 µM (inactive) in experiment [18]. Besides, the GI50 in experiment [19] is > 100 µM (inactive).

Consider `CCCCC(=O)OC[n+]1ccc(-c2c(COC(=O)NC(C)C)c(COC(=O)NC(C)C)c3n2CCC3)cc1`, for which the GI50 in experiment [1] was 34.6 µM (inactive); in experiment [2], > 100 µM (inactive); in experiment [3], > 100 µM (inactive); in experiment [4], 23.9 µM (inactive); in experiment [5] it was > 100 µM (inactive); in experiment [6] it was > 100 µM (inactive). Moreover, the GI50 in experiment [7] was 25.5 µM (inactive); in [8], > 84.5 µM (inactive); in experiment [9], > 76 µM (inactive); in experiment [10], > 77.4 µM (inactive); in experiment [11], > 100 µM (inactive); in experiment [12], > 100 µM (inactive). The GI50 in [13] is 10 µM (inactive); in [14], > 90.8 µM (inactive); in experiment [15] it was > 76.2 µM (inactive); in experiment [16], > 100 µM (inactive); in experiment [17], 50.8 µM (inactive); in experiment [18], > 100 µM (inactive). Moreover, the GI50 in experiment [19] is 40.4 µM (inactive).

For `N=C(N)N/N=C/c1nc2sccn2c1[N+](=O)[O-]`, the GI50 was 60.3 µM (inactive) in experiment [1]; 16.3 µM (inactive) in experiment [2]; > 100 µM (inactive) in experiment [3]; 56.1 µM (inactive) in [4]; 35.2 µM (inactive) in experiment [5]; 34 µM (inactive) in experiment [6]. For the same compound, the GI50 in [7] was 6.58 µM (inactive); in [8], 35.2 µM (inactive); in experiment [9] it was 26.2 µM (inactive); in [10] it was 22.6 µM (inactive); in experiment [11], 17.9 µM (inactive); in experiment [12], 24.7 µM (inactive). Further, the GI50 in experiment [13] was 33.2 µM (inactive); in experiment [14], 18.7 µM (inactive); in experiment [15] it was 33.3 µM (inactive); in [16], 65.3 µM (inactive); in [17], 18 µM (inactive); in experiment [18] it was > 100 µM (inactive). Further, the GI50 in experiment [19] is 36.8 µM (inactive).

Turning to `COc1cc(C2SCC(=O)N2c2ccccc2Cl)cc(OC)c1OC` (configuration not stated), the GI50 in [1] was > 100 µM (inactive); in experiment [2] it was > 100 µM (inactive); in experiment [3], > 100 µM (inactive); in experiment [4], > 100 µM (inactive); in experiment [5], 79.3 µM (inactive); in [6], > 100 µM (inactive). The GI50 is 37.8 µM (inactive) in experiment [7]; > 100 µM (inactive) in experiment [8]; > 100 µM (inactive) in [9]; > 100 µM (inactive) in [10]; > 100 µM (inactive) in experiment [11]; > 100 µM (inactive) in experiment [12]. Besides, the GI50 in experiment [13] was 43.1 µM (inactive); in experiment [14], > 100 µM (inactive); in [15], > 100 µM (inactive); in experiment [16], > 100 µM (inactive); in experiment [17], 62.1 µM (inactive); in [18], > 100 µM (inactive). The GI50 in experiment [19] was > 100 µM (inactive).

As for `COc1ccc2cc(NC(=O)Nn3cnnc3)ccc2c1`, the GI50 in experiment [1], in experiment [2], in experiment [3], in experiment [4], in [5] and in [6] was > 100 µM (inactive) in each case. For the same compound, the GI50 in experiment [7], in [8], in experiment [9], in experiment [10], in experiment [11] and in experiment [12] was > 100 µM (inactive) in each case. The GI50 in experiment [13], in experiment [14], in experiment [15], in experiment [16], in experiment [17] and in [18] was > 100 µM (inactive) in each case. Further, the GI50 in [19] is > 100 µM (inactive).

On to `O=C(/C=C/c1ccccc1Br)c1ccccc1`, for which the GI50 was 1.8 µM (inactive) in experiment [1]; 9.68 µM (inactive) in experiment [2]; 3.69 µM (inactive) in [3]; 3.39 µM (inactive) in experiment [4]; 10.9 µM (inactive) in [5]; 2.63 µM (inactive) in experiment [6]. For the same compound, the GI50 in experiment [7] was 1.35 µM (inactive); in experiment [8], 11.4 µM (inactive); in experiment [9], 3.03 µM (inactive); in [10], 6.61 µM (inactive); in experiment [11], 10.4 µM (inactive); in [12], 5.02 µM (inactive). Further, the GI50 in [13] was 2.18 µM (inactive); in experiment [14] it was 1.94 µM (inactive); in [15], 11.3 µM (inactive); in experiment [16] it was 5.55 µM (inactive); in [17], 0.427 µM (active); in experiment [18] it was 16.1 µM (inactive). The GI50 in experiment [19] was 4.1 µM (inactive).
